Results from patent publication US20200306213A1, “COMPOUNDS FOR USE IN THE TREATMENT OR PREVENTION OF LOWE SYNDROME OR DENT DISEASE AND METHODS THEREFOR” (Université de Montréal, priority 2017, published 2020).

How the values were obtained:
[1] = test system: dOCRL dsRNA treated Drosophila S2 cells; experiment: Cytokinesis / multinucleation assay in dOCRL dsRNA treated Drosophila S2 cells; assay type: cell-based; conditions: dOCRL depleted S2 cells, 50 μM, 24 hours
Procedure: (§1) Drosophila S2 cells were grown in Schneider's Drosophila medium complemented with FBS, Penicillin and Streptomycin (Invitrogen). […] Cells were fixed and labelled for F-Actin (red) and DNA (blue). Images are shown in FIGS. 1(a) to 1(c) in which stars mark multinucleated cells. The histogram of FIG. 2 represents the percentage of multinucleated cells quantified following the indicated treatments. Each P-values were calculated against dOCRL dsRNA treated cells.

[2] = test system: renal epithelial cells from a Lowe syndrome patient; experiment: Abscission assay (time-lapse) in renal epithelial cells from a Lowe syndrome patient; assay type: cell-based, human; conditions: 25 μM, 60 hours time-lapse recording
Procedure: (§2) Further tests were carried out using human cellular models for the Lowe syndrome.
In this experiment, normal renal epithelial cells from a donor not mutated in OCRL1 and renal epithelial cells from a Lowe syndrome patient were grown in DMEM/F12 (Gibco BRL) supplemented with 10% fetal bovine serum, ITS supplemented, 4 pg/mL triiodothyronine, 36 ng/mL dexamethasone, 10 ng/ml EGF, 100 U/mL penicillin/streptomycin and 2 mM glutamine at 33° C.
Cell divisions were recorded by time-lapse microscopy using a Nikon Eclipse Ti Inverted Microscope. The curves represent the cumulative distribution of the abscission times in the indicated cell populations (see FIG. 3). […] Comparatively, abscission delay observed in Lowe patient cells was not corrected by treatment with o-3M3FBS.

[3] = test system: OCRL1-depleted HeLa cells; experiment: Abscission assay (time-lapse) in OCRL1-depleted HeLa cells; assay type: cell-based, human; conditions: OCRL1 siRNA-depleted HeLa cells, 25 μM, 60 hours time-lapse recording, compared to DMSO alone
Procedure: as §2
Human HeLa epithelial cells were grown in DMEM medium (Gibco BRL) supplemented with 10% fetal bovine serum, 100 U/ml penicillin/streptomycin and 2 mM glutamine at 37° C. HeLa cells were depleted in OCRL1 by transfecting control siRNAs (5′-CGUACGCGGAAUACUUCGA-3′) or OCRL1 RNAi (5′-GAAAGGAUCAGUGUCGAUA-3′) specific siRNAs for 72 h before imaging using HiPerFect reagents (Qiagen).
Cell divisions were recorded by time-lapse microscopy using a Nikon Eclipse Ti Inverted Microscope. The curves represent the cumulative distribution of the abscission times in the indicated cell populations (see FIG. 5).

[4] = test system: wildtype zebrafish embryos; experiment: Pronephric uptake of Alexa 488-10 kDa dextran in wildtype zebrafish embryos; assay type: in vivo; conditions: wildtype embryos at 72 hpf, 5 μM in the water, assessed 2 hours after tracer injection
Procedure: (§3) Finally, to test whether activation of PLC rescues phenotypes induced by loss of OCRL1 in an in vivo context, a previously established Ocrl−/− mutant zebrafish model for Lowe syndrome was used (Ramirez I. B. et al., 2012, Hum. Mol. Genet., 21, 1744-59, Oltrabella F., et al., 2015, PLoS Genetics, 11(4):e1005058). Wild type fish were of AB background.
(§4) Lysine-fixable 10 kDa dextran labelled with Alexa 488 (Molecular Probes) was prepared in PBS at 2 μg/μl final concentration. Zebrafish embryos at 72 hpf (hours post fertilisation) were treated for 60 minutes with DMSO control (0.005% DMSO), 5 μM m-3M3FBS or 5 μM o-3M3FBS by addition to the water. Embryos were then anaesthetised with 0.2 mg/ml MS222 (Sigma) in chorion water, and the tracer Alexa 488-10 kDa dextran (green) was injected into the common cardinal vein using a glass micropipette PLI-90 Pico-Injector (Harvard Apparatus). Embryos were returned to the respective drug treatments and incubated at 29° C. Pronephric accumulation was assessed 2 hours after injection on whole mount embryos using a fluorescent dissecting stereomicroscope (Leica MZ10F). Statistical analysis was performed using the Pearson's chi-squared test with Prism software (Prism Software Corporation).

[5] = test system: Ocrl−/− mutant zebrafish embryos; experiment: Pronephric uptake of Alexa 488-10 kDa dextran in Ocrl−/− mutant zebrafish embryos; assay type: in vivo; conditions: OCRL1 mutant embryos at 72 hpf, 5 μM in the water, assessed 2 hours after tracer injection
Procedure: as §3, §4

[6] = test system: control Drosophila S2 cells; experiment: Cytokinesis / multinucleation assay in control Drosophila S2 cells; assay type: cell-based; conditions: 50 μM, 24 hours
Procedure: as §1

[7] = test system: normal renal epithelial cells from a donor not mutated in OCRL1; experiment: Abscission assay (time-lapse) in normal renal epithelial cells; assay type: cell-based, human; conditions: 25 μM, 60 hours time-lapse recording
Procedure: Further tests were carried out using human cellular models for the Lowe syndrome. […] In this experiment, normal renal epithelial cells from a donor not mutated in OCRL1 and renal epithelial cells from a Lowe syndrome patient were grown in DMEM/F12 (Gibco BRL) supplemented with 10% fetal bovine serum, ITS supplemented, 4 pg/mL triiodothyronine, 36 ng/mL dexamethasone, 10 ng/ml EGF, 100 U/mL penicillin/streptomycin and 2 mM glutamine at 33° C. […] Cell divisions were recorded by time-lapse microscopy using a Nikon Eclipse Ti Inverted Microscope. The curves represent the cumulative distribution of the abscission times in the indicated cell populations (see FIG. 3). […] Comparatively, abscission delay observed in Lowe patient cells was not corrected by treatment with o-3M3FBS.

SMILES	effect on cytokinesis failure / multi-nucleation rate [1]	correction of abscission delay [2]	correction of abscission delay [3]	effect on renal (pronephric) uptake of tracer [4]	rescue of endocytosis in the renal tubule (pronephric uptake of tracer) [5]	effect on cytokinesis (multinucleated cells) [6]	effect on timing of abscission [7]
Cc1cc(C)c(S(=O)(=O)Nc2ccccc2C(F)(F)F)c(C)c1 [o-3M3FBS, reference compound]	did not significantly modify the multi-nucleation rate	not corrected	no significant effect on abscission	no effect	no effect	–	–
Cc1cc(C)c(S(=O)(=O)Nc2cccc(C(F)(F)F)c2)c(C)c1 [m-3M3FBS, 2,4,6-trimethyl-N-(m-3-trifluoromethylphenyl) benzene sulfonamide]	prevented cytokinesis failure	fully corrected	showed correction of the abscission delay	no effect upon renal uptake	efficiently rescued endocytosis	did not perturb cytokinesis	not affected
